From patent US4642341A, “Carbapenem antibiotics” (priority 1985, dated 1987)
In brackets after ≈: the same amount, converted by molar mass. Read-outs that look alike come from different tables or passages of the source.

Experiments:
P. aeruginosa A21213 = experiment: Minimum Inhibitory Concentration, tube dilution; format: cell-based; details: Pseudomonas aeruginosa, A21213, overnight 37° C.; table 6; read-out: MIC
S. marcescens A20019 = experiment: Minimum Inhibitory Concentration, tube dilution; format: cell-based; details: Serratia marcescens, A20019, overnight 37° C.; table 6
P. vulgaris A21559 = experiment: Minimum Inhibitory Concentration, tube dilution; format: cell-based; details: Proteus vulgaris, A21559, overnight 37° C.; table 6
P. aeruginosa A9843A [1] = experiment: animal or person; format: in vivo, mice; details: Pseudomonas aeruginosa, in Mus musculus, im, read-out: PD50 /treatment
Text: The PD50 (dose in mg/kg required to give protection to 50% of the infected mice) is indicated.

K. pneumoniae A-9664 = experiment: Minimum Inhibitory Concentration, tube dilution; format: cell-based; details: Klebsiella pneumoniae, A9664, overnight 37° C.; table 6
B. fragilis A22696 = experiment: Minimum Inhibitory Concentration, tube dilution; format: cell-based; details: Bacteroides fragilis, overnight 37° C., table 6, read-out: MIC
B. fragilis A22862 = experiment: Minimum Inhibitory Concentration, tube dilution; format: cell-based; details: Bacteroides fragilis, overnight 37° C., table 6
E. coli A20341-1 = experiment: Minimum Inhibitory Concentration, tube dilution; format: cell-based; details: Escherichia coli, A203411, overnight 37° C.; table 6
K. pneumoniae A20468 = experiment: Minimum Inhibitory Concentration, tube dilution; format: cell-based; details: Klebsiella pneumoniae, A20468, overnight 37° C.; table 6; read-out: MIC
P. aeruginosa A-9843A = experiment: Minimum Inhibitory Concentration, tube dilution; format: cell-based; details: Pseudomonas aeruginosa, A9843A, overnight 37° C.; table 6; read-out: MIC
S. pneumoniae A-9585 = experiment: Minimum Inhibitory Concentration, tube dilution; format: cell-based; details: Streptococcus pneumoniae, A9585, overnight 37° C.; table 6
E. cloacae A9659 = experiment: Minimum Inhibitory Concentration, tube dilution; format: cell-based; details: Enterobacter cloacae, A9659, overnight 37° C.; table 6; read-out: MIC
P. rettgeri A22424 = experiment: Minimum Inhibitory Concentration, tube dilution; format: cell-based; details: Providencia rettgeri, overnight 37° C., table 6, read-out: MIC
S. aureus A-9537 = experiment: Minimum Inhibitory Concentration, tube dilution; format: cell-based; details: table 6
P. mirabilis A-9900 = experiment: Minimum Inhibitory Concentration, tube dilution; format: cell-based; details: Proteus mirabilis, A9900, overnight 37° C.; table 6
[2] = system: S. aureus A15097 (Meth-res.); experiment: Minimum Inhibitory Concentration, tube dilution; format: cell-based; details: Staphylococcus aureus, table 6
S. pyogenes A-9604 = experiment: Minimum Inhibitory Concentration, tube dilution; format: cell-based; details: Streptococcus pyogenes, A9604, overnight 37° C.; table 6
S. faecalis A20688 = experiment: Minimum Inhibitory Concentration, tube dilution; format: cell-based; details: Enterococcus faecalis, A20688, overnight 37° C.; table 6; read-out: MIC
[3] = Pharmacokinetic parameters in the mouse after intramuscular dose; format: in vivo, mice; details: im, 20 mg/kg
Text: Also shown is the urinary recovery in the mice.
Compounds were solubilized in 0.1 M phosphate buffer pH 7.

S. aureus A9606 = experiment: Protective effect, intramuscular treatment of infected mice (table 7); format: in vivo; details: Staphylococcus aureus, A9606, im; i.m. 0 to 2 hours post-infection; ~1×10^9 organisms i.p.; read-out: PD50 /treatment
Protocol: (§1) Drugs were administered i.m. 0 to 2 hours post-infection (A9606) or 1 and 3.5 hours post-infection for the others.

P. mirabilis A9900 = experiment: as above; format: in vivo; details: Proteus mirabilis, A9900, im; i.m. 1 and 3.5 hours post-infection; ~1×10^7 organisms i.p.; read-out: PD50 /treatment
Protocol: as §1

[4] = Half-life in phosphate buffer pH 7.4; format: physicochemical
Protocol: To a solution of p-nitrobenzyl 3-[2-(1-pyridinium)ethylthio)]-6α[1-(R)-hydroxyethyl]-7-oxo-1-azabicyclo(3.2.0)hept-2-ene-carboxylate diphenylphosphate (0.16 g, 0.22 mmol) in wet tetrahydrofuran (10mL) was added ether (10mL), potassium phosphate monobasic-sodium hydroxide buffer pH 7.4 (16 mL, 0.05 M) and 10% palladium on charcoal (0.16 g). The resulting mixture was hydrogenated under 40 psi for 1 h at 25° C. The two phases were separated and the organic phase was extracted with water (2×3 mL). The aqeuous solutions were combined, washed with ether (2×10 ml) and poured on top of a column (1.5×6.2 cm) pf μ-bondapak C-18 after the traces of organic solvents have been removed under vacuum. Elution of the column with water gave after lyophylization of the appropriate fractions a yellowish powder 0.062 g (84%), ir (KBr) .nu.max : 3700-3000 (OH), 1755 (C--O of β-lactam), 1630 (pyridinium), 1590 cm^-1 (carboxylate), ^1 Hmr (D2 O): 1.22 (3H, d, J=6.4 Hz, CH3 CHOH), 2.92 (d, J=9.1 Hz, H-4), 2.97 (d, J=9.1 Hz, H-4), 3.20 (dd, J=2.5 Hz, J=6.1 Hz, H-6), 3.44 (t, J=6.0 Hz, CH2 S), 3.93 (dd, J=9.1 Hz, J=2.5 Hz, H-5), 4.82 (t, J=6.0 Hz, CH2 N^+), 8.04 (m, Hm of pyridinium), 8.5 (m, Hp of pyridinium), 8.82 (dd, J=3.2. Hz, J=1.1 Hz, Ho of pyridinium), uv (H2 O) λ max : 259 (ε5800), 296 (ε7030) mμ, .tau.1/2 =13.5 h (measured at a concentration of 10^-4 M in phosphate buffer pH 7.4 at 36.8° C.).

M. morganii A15153 = experiment: Minimum Inhibitory Concentration, tube dilution; format: cell-based; details: Morganella morganii, A15153, overnight 37° C.; table 6
[5] = system: S. aureus A-9606 (Pen-res.); experiment: Minimum Inhibitory Concentration, tube dilution; format: cell-based; details: Staphylococcus aureus, Pen-res; table 6
H. influenzae A21518 = experiment: Minimum Inhibitory Concentration, tube dilution; format: cell-based; details: Haemophilus influenzae, overnight 37° C., table 6
P. aeruginosa A9843A [6] = experiment: animal or person; format: in vivo, mice; details: Pseudomonas aeruginosa, in Mus musculus, im, 3.5 h, read-out: PD50 /treatment
Protocol: as §1

H. influenzae A-9833 = experiment: Minimum Inhibitory Concentration, tube dilution; format: cell-based; details: Haemophilus influenzae, A9833; overnight 37° C.; table 6; read-out: MIC
E. coli A15119 = experiment: Minimum Inhibitory Concentration, tube dilution; format: cell-based; details: Escherichia coli, A15119, overnight 37° C.; table 6
[7] = Staphylococcus aureus, A9537, 50% serum, read-out: MIC
[8] = Staphylococcus aureus, A9537, overnight 37° C., read-out: MIC

Row | Structure (SMILES) | MIC (P. aeruginosa A21213) | MIC (S. marcescens A20019) | MIC (P. vulgaris A21559) | ED50 (P. aeruginosa A9843A [1]) | MIC (K. pneumoniae A-9664) | MIC (B. fragilis A22862) | MIC (E. coli A20341-1) | MIC (P. aeruginosa A-9843A) | MIC (S. pneumoniae A-9585) | MIC (E. cloacae A9659) | MIC (P. rettgeri A22424) | MIC (P. mirabilis A-9900) | MIC [2] | MIC (S. pyogenes A-9604) | MIC (S. faecalis A20688) | MIC (S. aureus A-9537; [7]) | MIC (S. aureus A-9537; [8]) | MIC [5] | MIC (E. coli A15119) | other results
1 | CC(C[n+]1ccccc1)SC1=C(C(=O)[O-])N2C(=O)[C@H]([C@@H](C)O)[C@H]2C1 (single isomer, unassigned) [Ex. 15 (cmp. "A")] | 1 µg/mL (≈ 2.87 µM) | 0.06 µg/mL (≈ 0.172 µM) | 0.03 µg/mL (≈ 0.0861 µM) | 3.1 mg/kg | 0.06 µg/mL (≈ 0.172 µM) | 0.13 µg/mL (≈ 0.373 µM) | 0.03 µg/mL (≈ 0.0861 µM) | – | – | – | – | – | – | – | – | – | – | – | – | MIC (B. fragilis A22696): 0.25 µg/mL (≈ 0.718 µM)
2 | C[C@@H](O)[C@H]1C(=O)N2C(C(=O)[O-])=C(SC3CCCCC3[n+]3ccccc3)C[C@H]12 (single isomer, unassigned) [Ex. 16 (cmp. "B"), (5R,6S) 3-[2-[(R or S)-(1-pyridinium)]-1-(R or S)-cyclohexylthio]-6-[1-(R)-hydroxyethyl]-7-oxo-1-azabicyclo(3.2.0)hept-2-ene-2-carboxylate] | – | – | – | – | 0.13 µg/mL (≈ 0.335 µM) | – | 0.06 µg/mL (≈ 0.154 µM) | 32 µg/mL (≈ 82.4 µM) | 0.002 µg/mL (≈ 0.00515 µM) | 0.5 µg/mL (≈ 1.29 µM) | 4 µg/mL (≈ 10.3 µM) | 0.13 µg/mL (≈ 0.335 µM) | 0.5 µg/mL (≈ 1.29 µM) | 0.004 µg/mL (≈ 0.0103 µM) | 8 µg/mL (≈ 20.6 µM) | – | – | – | – | MIC (K. pneumoniae A20468): 0.5 µg/mL (≈ 1.29 µM); MIC (S. aureus A-9537; overnight 37° C.): 0.013 µg/mL (≈ 0.0335 µM)
3 | Cc1cc[n+](CCSC2=C(C(=O)[O-])N3C(=O)[C@H]([C@@H](C)O)[C@H]3C2)cc1 [Example 8, 3-[2-(1-(4-methylpyridinium))ethylthio]-6α-[1(R)-hydroxyethyl]-7-oxo-1-azabicyclo(3.2.0)hept-2-ene-2-carboxylate] | – | – | 0.06 µg/mL (≈ 0.172 µM) | – | – | 0.06 µg/mL (≈ 0.172 µM) | – | 8 µg/mL (≈ 23 µM) | 0.03 µg/mL (≈ 0.0861 µM) | – | – | – | > 63 µg/mL | 0.03 µg/mL (≈ 0.0861 µM) | – | 0.06 µg/mL (≈ 0.172 µM) | 0.03 µg/mL (≈ 0.0861 µM) | 0.06 µg/mL (≈ 0.172 µM) | – | AUC ([3]; blood): 4600 ng·h/mL; Cmax ([3]; blood): 10600 ng/mL; half-life ([3]; blood, read-out: T1/2 (blood)): 8.2 min; dose excreted ([3]; urine, read-out: Urine Recovery): 47 ± 7%; ED50 (S. aureus A9606): 0.8 mg/kg; ED50 (P. mirabilis A9900): ~38 mg/kg; half-life at 100 µM ([4]; phosphate buffer, pH 7.4, τ1/2 (half-life)): 12.8 h; MIC (M. morganii A15153): 0.03 µg/mL (≈ 0.0861 µM); MIC (H. influenzae A21518): > 32 µg/mL; ED50 (P. aeruginosa A9843A [6]): 0.9 mg/kg; MIC (H. influenzae A-9833): > 32 µg/mL
4 | COc1ccc[n+](CCSC2=C(C(=O)[O-])N3C(=O)[C@H]([C@@H](C)O)[C@H]3C2)c1 [Example 10, 3-[2-(3-methoxy-1-pyridinium)ethylthio]-6α-[1'-(R)-hydroxyethyl]-7-oxo-1-azabicyclo(3.2.0)-hept-2-ene-2-carboxylate] | 1 µg/mL (≈ 2.74 µM) | – | 0.06 µg/mL (≈ 0.165 µM) | 1.8 mg/kg | 0.06 µg/mL (≈ 0.165 µM) | – | – | 4 µg/mL (≈ 11 µM) | 0.002 µg/mL (≈ 0.00549 µM) | – | – | – | – | 0.002 µg/mL (≈ 0.00549 µM) | – | 0.06 µg/mL (≈ 0.165 µM) | 0.008 µg/mL (≈ 0.022 µM) | 0.016 µg/mL (≈ 0.0439 µM) | 0.03 µg/mL (≈ 0.0823 µM) | half-life ([4]; 0.1 m phosphate buffer, pH 7.4, T1/2 (half-life)): 20 h
5 | CSc1ccc[n+](CCSC2=C(C(=O)[O-])N3C(=O)[C@H]([C@@H](C)O)[C@H]3C2)c1 [Example 11, (5R,6S)-3-[[2-(3-methylthiopyridinio)ethyl]thio]-6-[1-(R)-hydroxyethyl]-7-oxo-1-azabicyclo[3.2.0]hept-2-ene2-carboxylate] | 1 µg/mL (≈ 2.63 µM) | 0.06 µg/mL (≈ 0.158 µM) | 0.03 µg/mL (≈ 0.0788 µM) | 2.4 mg/kg | 0.06 µg/mL (≈ 0.158 µM) | 0.06 µg/mL (≈ 0.158 µM) | 0.03 µg/mL (≈ 0.0788 µM) | 4 µg/mL (≈ 10.5 µM) | 0.001 µg/mL (≈ 0.00263 µM) | 0.06 µg/mL (≈ 0.158 µM) | 0.25 µg/mL (≈ 0.657 µM) | – | – | 0.001 µg/mL (≈ 0.00263 µM) | 0.25 µg/mL (≈ 0.657 µM) | 0.03 µg/mL (≈ 0.0788 µM) | 0.004 µg/mL (≈ 0.0105 µM) | 0.008 µg/mL (≈ 0.021 µM) | 0.03 µg/mL (≈ 0.0788 µM) | half-life ([4]; phosphate buffer, pH 7.4, 36.8° C., read-out: t1/2 (half-life) (converted)): 20 h
6 | CSc1n(C)cc[n+]1CCSC1=C(C(=O)[O-])N2C(=O)[C@H]([C@@H](C)O)[C@H]2C1 [Example 13, (5R, 6S)-3-[2-(2-methylthio-3-methylimidazolio)ethyl-thio]-6-[1-(R)-hydroxyethyl]-7-oxo-1-azabicyclo[3.2.0]hept-2-ene-2-carboxylate] | 2 µg/mL (≈ 5.22 µM) | 0.06 µg/mL (≈ 0.156 µM) | 0.03 µg/mL (≈ 0.0782 µM) | – | – | – | 0.03 µg/mL (≈ 0.0782 µM) | 32 µg/mL (≈ 83.4 µM) | 0.001 µg/mL (≈ 0.00261 µM) | – | – | 0.03 µg/mL (≈ 0.0782 µM) | – | 0.002 µg/mL (≈ 0.00522 µM) | 0.5 µg/mL (≈ 1.3 µM) | 0.03 µg/mL (≈ 0.0782 µM) | 0.008 µg/mL (≈ 0.0209 µM) | 0.03 µg/mL (≈ 0.0782 µM) | 0.03 µg/mL (≈ 0.0782 µM) | –
